Results as given in US20170152269A1, “FUSED BICYCLIC COMPOUNDS AND THEIR USE AS CDK INHIBITORS” (priority 2016, published 2017).
Counter-ions that a name gives are not always drawn.

How the values were obtained:
[1] = biological target: T1, CDK4 (Homo sapiens, UniProt P11802); assay: Lance TR-FRET kinase assay, CDK4; assay type: biochemical; details: ATP 100 μM, 60 min, read-out: CDK 4 inhibitory activity (IC50)
T1 construct: purchased ThermoFisher (Waltham, Mass.)
Description: (§1) Inhibitory activity of compounds against CDK1/2/4/5/6/7 was assessed using Lance TR-FRET assay kits from Perkin Elmer Life Sciences (Waltham, Mass.). CDK1/2/4/5/6/7 enzymes were purchased from ThermoFisher (Waltham, Mass.). […] Final concentrations of substrates and DMSO were 100 nM and 0.5%, respectively. Concentrations of ATP and different CDK enzymes were adjusted accordingly to achieve optimal enzymatic activities. Final CDK concentrations were 100, 500, 600, 100, 50, and 200 ng/well and ATP concentrations were 30, 50, 100, 20, 100, and 50 μM for CDK1/2/4/5/6/7, respectively. Assay plates were covered to protect from light and spun for 1 min at 700 RPM. Reactions were allowed to perform for 60 minutes in dark with gentle shaking at room temperature after which 5 μL of 40 mM EDTA in detection buffer was added to stop reactions followed 5 μL of the Eu labeled antibodies giving final concentrations of 2 nM to detect the phosphorylation of the peptide substrates. […] The percent of inhibition was calculated from the means of data points using the formula: 100−(Signalcompound−NoSignalbackground)*100/(Signalvehicle−NoSignalbackground). The IC50s were determined with GraphPad Prism by the non-linear sigmoidal curve fitting of data from 10 doses.

[2] = biological target: T2, CDK6 (Homo sapiens, UniProt Q00534); assay: Lance TR-FRET kinase assay, CDK6; assay type: biochemical
T2 construct: purchased ThermoFisher (Waltham, Mass.)
Description: (§2) Time Resolved-Fluorescent Resonance Energy Transfer (TR-FRET) was used to determine inhibitory ability of compounds A1˜A19, B1s and B1˜B12 against the enzymatic activity of CDK1, CDK2, CDK4, CDK5, CDK6, CDK7, and CDK9.
(§3) Inhibitory activity of compounds against CDK1/2/4/5/6/7 was assessed using Lance TR-FRET assay kits from Perkin Elmer Life Sciences (Waltham, Mass.). CDK1/2/4/5/6/7 enzymes were purchased from ThermoFisher (Waltham, Mass.). 2.5 μL of compound solutions and 2.5 μL of enzyme solutions in kinase assay buffer, which was 50 mM HEPES (pH 7.5) with 1 mM EGTA, 1 mM MgCl2, 2 mM DTT, and 0.01% Tween-20, were added into a white OptiPlate-384 plate followed by adding 5 μL of fluorescently labeled peptide substrates (Ulight-4E-BP1 for CDK4/6 and Ulight-MBP for […]) and ATP mixture solutions. Final concentrations of substrates and DMSO were 100 nM and 0.5%, respectively. Concentrations of ATP and different CDK enzymes were adjusted accordingly to achieve optimal enzymatic activities. Final CDK concentrations were 100, 500, 600, 100, 50, and 200 ng/well and ATP concentrations were 30, 50, 100, 20, 100, and 50 μM for CDK1/2/4/5/6/7, respectively. Assay plates were covered to protect from light and spun for 1 min at 700 RPM. Reactions were allowed to perform for 60 minutes in dark with gentle shaking at room temperature after which 5 μL of 40 mM EDTA in detection buffer was added to stop reactions followed 5 μL of the Eu labeled antibodies giving final concentrations of 2 nM to detect the phosphorylation of the peptide substrates. Assay plates were read with the EnVision™ Multilabel Reader in TR-FRET mode (excitation at 320 nm and emission at 665 nm). The percent of inhibition was calculated from the means of data points using the formula: 100−(Signalcompound−NoSignalbackground)*100/(Signalvehicle−NoSignalbackground). The IC50s were determined with GraphPad Prism by the non-linear sigmoidal curve fitting of data from 10 doses.

[3] = biological target: T3, CDK9/cyclin T1 (Homo sapiens, UniProt P50750); assay: LanthaScreen Eu kinase binding assay, CDK9; details: tracer 236 displacement, CDK9/cyclin T1 5 nM, 1 hour; read-out: CDK 9 inhibitory activity (IC50)
T3 construct: purchased ThermoFisher (Waltham, Mass.)
Description: as §2
The CDK9 kinase inhibitory activity of compounds was tested in the LanthaScreen Eu kinase binding assay from ThermoFisher. LanthaScreen® Eu Kinase binding assays are based on the binding and displacement of a proprietary, Alexa Fluor® 647-labeled, ATP-competitive kinase inhibitor scaffold (kinase tracer) to CDK9. CDK9/cyclin T1, Kinase tracer 236 and LanthaScreen® Eu-anti-His Antibody were purchased form ThermoFisher (Waltham, Mass.). 5 μL of CDK9/cyclin T1 (final 5 nM)/antibody (final 2 nM) mixture, 5 μL of compound in kinase buffer, and 5 μL of tracer (final 30 nM) were added to wells of a white OptiPlate-384 plate in this specific order. Assay plates were covered to protect from light, spun for 1 min at 700 RPM and incubated at room temperature for 1 hour. Assay plates were read with the EnVision™ Multilabel Reader in TR-FRET mode (excitation at 320 nm and emission at 665 nm). The percent of inhibition was calculated from the means of data points using the formula: 100−(Signalcompound−NoSignalbackgound)*100/(Signalvehicle−NoSignalbackground). The IC50s were determined with GraphPad Prism by the non-linear sigmoidal curve fitting of data from 10 doses.

[4] = biological target: T4, CDK1 (Homo sapiens, UniProt P06493); assay: Lance TR-FRET kinase assay, CDK1; assay type: biochemical; details: ATP 30 μM, 60 min, read-out: CDK 1 inhibitory activity (IC50)
T4 construct: purchased ThermoFisher (Waltham, Mass.)
Description: as §2, §3

[5] = biological target: T5, CDK2 (Homo sapiens, UniProt P24941); assay: Lance TR-FRET kinase assay, CDK2; assay type: biochemical; details: ATP 50 μM, 60 min, read-out: CDK 2 inhibitory activity (IC50)
T5 construct: purchased ThermoFisher (Waltham, Mass.)
Description: as §2, §3

[6] = biological target: T6, CDK7 (Homo sapiens, UniProt P50613); assay: Lance TR-FRET kinase assay, CDK7; assay type: biochemical; details: ATP 50 μM, 60 min, read-out: CDK 7 inhibitory activity (IC50)
T6 construct: purchased ThermoFisher (Waltham, Mass.)
Description: as §1

T3 sequence (P50750 whole entry): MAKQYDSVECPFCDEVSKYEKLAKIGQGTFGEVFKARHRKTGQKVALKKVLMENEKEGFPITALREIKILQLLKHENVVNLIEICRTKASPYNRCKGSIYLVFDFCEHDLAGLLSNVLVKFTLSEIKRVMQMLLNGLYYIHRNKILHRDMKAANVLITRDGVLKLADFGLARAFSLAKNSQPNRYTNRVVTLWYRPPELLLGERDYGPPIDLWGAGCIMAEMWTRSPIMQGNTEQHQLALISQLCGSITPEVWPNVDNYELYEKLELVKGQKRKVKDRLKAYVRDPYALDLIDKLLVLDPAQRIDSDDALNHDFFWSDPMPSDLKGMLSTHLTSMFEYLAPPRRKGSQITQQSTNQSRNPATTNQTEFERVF
T3 sequence (O60563 whole entry partner): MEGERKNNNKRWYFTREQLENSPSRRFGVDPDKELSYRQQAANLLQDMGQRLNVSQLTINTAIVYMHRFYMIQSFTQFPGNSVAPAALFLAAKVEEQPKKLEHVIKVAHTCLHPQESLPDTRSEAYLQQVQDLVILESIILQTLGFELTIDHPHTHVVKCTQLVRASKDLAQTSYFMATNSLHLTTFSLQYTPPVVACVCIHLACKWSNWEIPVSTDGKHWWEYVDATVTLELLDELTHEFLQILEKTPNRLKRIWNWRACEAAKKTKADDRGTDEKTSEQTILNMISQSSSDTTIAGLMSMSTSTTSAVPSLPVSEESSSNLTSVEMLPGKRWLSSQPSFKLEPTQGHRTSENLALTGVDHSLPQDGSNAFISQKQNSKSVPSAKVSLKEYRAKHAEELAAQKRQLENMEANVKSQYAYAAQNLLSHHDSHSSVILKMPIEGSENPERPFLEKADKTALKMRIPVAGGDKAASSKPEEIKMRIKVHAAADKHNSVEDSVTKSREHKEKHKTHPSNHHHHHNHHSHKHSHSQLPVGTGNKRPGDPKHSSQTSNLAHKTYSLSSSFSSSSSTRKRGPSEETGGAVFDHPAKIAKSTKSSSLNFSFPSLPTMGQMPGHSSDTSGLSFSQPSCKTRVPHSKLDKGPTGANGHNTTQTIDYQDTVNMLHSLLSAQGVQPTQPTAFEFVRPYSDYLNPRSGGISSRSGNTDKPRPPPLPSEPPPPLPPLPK
T4 sequence (P06493 whole entry): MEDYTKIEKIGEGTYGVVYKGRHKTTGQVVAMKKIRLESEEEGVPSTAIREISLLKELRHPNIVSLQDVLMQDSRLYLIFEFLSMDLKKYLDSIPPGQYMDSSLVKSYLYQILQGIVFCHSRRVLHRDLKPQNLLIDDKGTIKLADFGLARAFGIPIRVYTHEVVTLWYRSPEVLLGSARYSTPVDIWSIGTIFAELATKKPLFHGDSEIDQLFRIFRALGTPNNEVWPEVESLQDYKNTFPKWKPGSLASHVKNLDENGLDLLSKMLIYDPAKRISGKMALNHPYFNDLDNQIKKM
T4 sequence (P14635 whole entry partner): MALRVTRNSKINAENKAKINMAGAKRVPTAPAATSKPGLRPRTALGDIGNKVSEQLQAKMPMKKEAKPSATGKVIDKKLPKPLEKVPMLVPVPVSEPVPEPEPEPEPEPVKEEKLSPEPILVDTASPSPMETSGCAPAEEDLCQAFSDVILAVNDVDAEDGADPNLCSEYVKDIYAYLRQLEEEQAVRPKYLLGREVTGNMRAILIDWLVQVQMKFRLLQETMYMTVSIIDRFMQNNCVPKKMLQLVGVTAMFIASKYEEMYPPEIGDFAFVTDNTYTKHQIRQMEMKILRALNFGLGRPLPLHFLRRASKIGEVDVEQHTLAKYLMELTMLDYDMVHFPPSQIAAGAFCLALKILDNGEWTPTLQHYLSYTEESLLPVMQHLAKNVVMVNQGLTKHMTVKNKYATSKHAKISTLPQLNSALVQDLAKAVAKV
T2 sequence (Q00534 whole entry): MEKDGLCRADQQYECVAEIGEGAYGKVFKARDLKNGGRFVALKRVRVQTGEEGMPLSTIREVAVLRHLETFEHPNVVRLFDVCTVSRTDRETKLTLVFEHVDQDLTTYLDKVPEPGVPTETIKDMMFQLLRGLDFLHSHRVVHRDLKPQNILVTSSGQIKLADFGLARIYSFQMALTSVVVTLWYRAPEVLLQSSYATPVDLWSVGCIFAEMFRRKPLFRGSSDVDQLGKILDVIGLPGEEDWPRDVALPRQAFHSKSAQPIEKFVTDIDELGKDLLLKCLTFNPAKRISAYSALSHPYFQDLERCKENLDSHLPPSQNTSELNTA
T2 sequence (P24385 whole entry partner): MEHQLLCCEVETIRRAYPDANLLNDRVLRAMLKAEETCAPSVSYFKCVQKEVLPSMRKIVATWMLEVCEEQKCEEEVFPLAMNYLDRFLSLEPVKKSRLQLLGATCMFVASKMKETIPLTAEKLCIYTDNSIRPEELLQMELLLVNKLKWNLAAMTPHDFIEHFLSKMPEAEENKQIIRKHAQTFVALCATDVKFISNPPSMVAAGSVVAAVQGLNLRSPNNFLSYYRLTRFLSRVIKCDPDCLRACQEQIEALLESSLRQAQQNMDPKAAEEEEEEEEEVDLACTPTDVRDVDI
T1 sequence (P11802 whole entry): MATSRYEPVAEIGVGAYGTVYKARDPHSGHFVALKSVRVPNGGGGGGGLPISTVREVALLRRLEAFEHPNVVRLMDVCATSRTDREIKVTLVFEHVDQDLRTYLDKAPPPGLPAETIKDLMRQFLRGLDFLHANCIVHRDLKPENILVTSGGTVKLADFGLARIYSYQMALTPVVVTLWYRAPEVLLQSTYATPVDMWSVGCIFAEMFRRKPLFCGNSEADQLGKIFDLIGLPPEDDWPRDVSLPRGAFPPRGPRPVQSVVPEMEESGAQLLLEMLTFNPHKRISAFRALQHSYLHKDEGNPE
T1 sequence (P24385 whole entry partner): as the sequence (P24385 whole entry partner) above
T6 sequence (P50613 whole entry): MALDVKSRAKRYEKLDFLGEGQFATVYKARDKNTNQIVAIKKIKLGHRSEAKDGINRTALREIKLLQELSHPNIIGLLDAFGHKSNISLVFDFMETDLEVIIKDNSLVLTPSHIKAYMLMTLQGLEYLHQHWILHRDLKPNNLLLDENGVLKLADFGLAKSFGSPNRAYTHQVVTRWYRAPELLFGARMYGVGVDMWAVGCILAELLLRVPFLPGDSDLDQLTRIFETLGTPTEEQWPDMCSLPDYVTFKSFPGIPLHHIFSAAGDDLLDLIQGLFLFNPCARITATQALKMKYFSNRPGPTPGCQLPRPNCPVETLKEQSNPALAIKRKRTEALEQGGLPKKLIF
T6 sequence (P51946 whole entry partner): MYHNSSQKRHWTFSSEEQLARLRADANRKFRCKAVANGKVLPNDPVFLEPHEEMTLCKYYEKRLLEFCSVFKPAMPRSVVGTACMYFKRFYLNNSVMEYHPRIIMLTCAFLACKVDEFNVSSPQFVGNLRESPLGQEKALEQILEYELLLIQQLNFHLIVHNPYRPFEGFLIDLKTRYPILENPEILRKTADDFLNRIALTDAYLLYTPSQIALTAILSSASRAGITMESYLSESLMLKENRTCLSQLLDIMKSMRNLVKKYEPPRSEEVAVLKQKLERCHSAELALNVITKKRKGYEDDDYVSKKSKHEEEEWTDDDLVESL
T6 sequence (P51948 whole entry partner): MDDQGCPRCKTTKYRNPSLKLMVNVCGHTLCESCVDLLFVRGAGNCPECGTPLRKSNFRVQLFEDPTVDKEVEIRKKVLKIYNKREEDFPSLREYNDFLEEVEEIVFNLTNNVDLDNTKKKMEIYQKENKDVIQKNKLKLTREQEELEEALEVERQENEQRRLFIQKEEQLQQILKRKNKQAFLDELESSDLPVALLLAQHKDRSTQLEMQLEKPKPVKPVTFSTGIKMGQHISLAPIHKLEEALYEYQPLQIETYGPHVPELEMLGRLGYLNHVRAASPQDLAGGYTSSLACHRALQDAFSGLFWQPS

Row | SMILES | IC50 [1] | IC50 [2] | IC50 [3] | IC50 [4] | IC50 [5] | IC50 [6]
1 | O=C(c1sc2cnc(Nc3ccc(N4CCNCC4)cn3)cc2c1C1CCCC1)N1CCCC1 [Compound A17, (3-cyclopentyl-5-((5-(piperazin-1-yl)pyridin-2-yl)amino)thieno[2,3-c]pyridin-2-yl)(pyrrolidin-1-yl)methanone] | 12 nM | 20 nM |  |  |  | 
2 | CN(C)C(=O)c1sc2cnc(Nc3ccc(N4CCNCC4)cn3)cc2c1C1CC1 [Compound A16, 3-cyclopropyl-N,N-dimethyl-5-((5-(piperazin-1-yl)pyridin-2-yl)amino)thieno[2,3-c]pyridine-2-carboxamide] | 32.1 nM | 21 nM | 24 nM |  |  | 
3 | N#Cc1sc2cnc(Nc3ccc(N4CCNCC4)cn3)cc2c1C1CCCC1 [Compound B1s, 3-cyclopentyl-5-((5-(piperazin-1-yl)pyridin-2-yl)amino)thieno[2,3-c]pyridine-2-carbonitrile hydrochloride] | 0.9 nM |  | 0.6 nM | 8.7 nM | 9.2 nM | 7.2 nM
4 | CN(C)C(=O)c1sc2cnc(Nc3ccc(N4CCNCC4)cn3)cc2c1C1CCOC1 (stereo not shown) [Compound A13, N,N-dimethyl-5-((5-(piperazin-1-yl)pyridin-2-yl)amino)-3-(tetrahydrofuran-3-yl)thieno[2,3-c]pyridine-2-carboxamide] | 34 nM | 25 nM |  |  |  | 
5 | O=C(c1sc2cnc(Nc3ccc(N4CCNCC4)cn3)cc2c1C1CCCC1)N1CC(O)C1 [Compound A19, (3-cyclopentyl-5-((5-(piperazin-1-yl)pyridin-2-yl)amino)thieno[2,3-c]pyridin-2-yl)(3-hydroxyazetidin-1-yl)methanone] | 22 nM | 18 nM |  |  |  | 
6 | Cc1c(C(=O)N(C)C)sc2cnc(Nc3ccc(N4CCNCC4)cn3)cc12 [Compound A3, N,N,3-trimethyl-5-((5-(piperazin-1-yl)pyridin-2-yl)amino)thieno[2,3-c]pyridine-2-carboxamide] | 413 nM | 174 nM | 420 nM |  |  | 
7 | CN(C)C(=O)c1sc2cnc(Nc3ccc(N4CCNCC4)cn3)cc2c1C1CCC(F)(F)C1 (stereo not shown) [Compound A12, 3-(3,3-difluorocyclopentyl)-N,N-dimethyl-5-((5-(piperazin-1-yl)pyridin-2-yl)amino)thieno[2,3-c]pyridine-2-carboxamide] | 29 nM | 20 nM |  | 3680 nM | 1110 nM | 
8 | CN(C)C(=O)c1sc2cnc(Nc3ccc(N4CCNCC4)cn3)cc2c1C1CC2CC2C1 (stereo not shown) [Compound A7, 3-(bicyclo[3.1.0]hexan-3-yl)-N,N-dimethyl-5-((5-(piperazin-1-yl)pyridin-2-yl)amino)thieno[2,3-c]pyridine-2-carboxamide] | 4.7 nM | 6.4 nM |  |  |  | 
9 | CC(C)c1c(C(=O)N(C)C)sc2cnc(Nc3ccc(N4CCNCC4)cn3)cc12 [Compound A15, 3-isopropyl-N,N-dimethyl-5-((5-(piperazin-1-yl)pyridin-2-yl)amino)thieno[2,3-c]pyridine-2-carboxamide] | 20.5 nM | 10.7 nM |  |  |  | 
10 | CC1(C)CN(C(=O)c2sc3cnc(Nc4ccc(N5CCNCC5)cn4)cc3c2C2CCCC2)C1 [Compound A18, (3-cyclopentyl-5-((5-(piperazin-1-yl)pyridin-2-yl)amino)thieno[2,3-c]pyridin-2-yl)(3,3-dimethylazetidin-1-yl)methanone] | 60 nM | 262 nM |  |  |  | 
11 | CN(C)C(=O)c1sc2cnc(Nc3ccc(N4CCNCC4)cn3)cc2c1C1CCC1 [Compound A4, 3-cyclobutyl-N,N-dimethyl-5-((5-(piperazin-1-yl)pyridin-2-yl)amino)thieno[2,3-c]pyridine-2-carboxamide] | 4.6 nM | 2.1 nM |  |  |  | 
12 | COC1(c2c(C(=O)N(C)C)sc3cnc(Nc4ccc(N5CCNCC5)cn4)cc23)CCCC1 [Compound A6, 3-(1-methoxycyclopentyl)-N,N-dimethyl-5-((5-(piperazin-1-yl)pyridin-2-yl)amino)thieno[2,3-c]pyridine-2-carboxamide] | 3.7 nM | 2.1 nM | 5.2 nM | 501 nM | 124 nM | 
13 | CN(C)C(=O)c1sc2cnc(Nc3ccc(N4CCN(C(=O)C(O)CO)CC4)cn3)cc2c1C1CCCC1 (stereo not shown) [Compound A14, 3-cyclopentyl-5-((5-(4-(2,3-dihydroxypropanoyl)piperazin-1-yl)pyridin-2-yl)amino)-N,N-dimethylthieno[2,3-c]pyridine-2-carboxamide] | 2.9 nM | 2.1 nM | 4.2 nM | 273 nM | 67.7 nM | 
14 | N#CC1CN(C(=O)c2sc3cnc(Nc4ccc(N5CCNCC5)cn4)cc3c2C2CCCC2)C1 [Compound A9, 1-(3-cyclopentyl-5-((5-(piperazin-1-yl)pyridin-2-yl)amino)thieno[2,3-c]pyridine-2-carbonyl) azetidine-3-carbonitrile] | 5.3 nM | 3.3 nM |  |  |  | 
15 | CN(C)C(=O)c1sc2cnc(Nc3cccc(N4CCNCC4)c3)cc2c1C1CCCC1 [Compound A11, 3-cyclopentyl-N,N-dimethyl-5-((3-(piperazin-1-yl)phenyl)amino)thieno[2,3-c]pyridine-2-carboxamide] | 160 nM | 50 nM | 58 nM |  |  | 
16 | CN(C)C(=O)c1sc2cnc(Nc3ccc(N4CCNCC4)cn3)cc2c1C1=CCCC1 [Compound A2, 3-(cyclopent-1-en-1-yl)-N,N-dimethyl-5-((5-(piperazin-1-yl)pyridin-2-yl)amino)thieno[2,3-c]pyridine-2-carboxamide] | 5 nM | 2.3 nM |  |  |  | 
17 | O=C(c1sc2cnc(Nc3ccc(N4CCNCC4)cn3)cc2c1C1CCCC1)N1CCC1 [Compound A8, azetidin-1-yl(3-cyclopentyl-5-((5-(piperazin-1-yl)pyridin-2-yl)amino)thieno[2,3-c]pyridin-2-yl)methanone] | 31 nM | 84 nM | 552 nM |  |  | 
18 | CN(C)C(=O)c1sc2cnc(Nc3cccc(N4CCOCC4)c3)cc2c1C1CCCC1 [Compound A10, 3-cyclopentyl-N,N-dimethyl-5-((3-morpholinophenyl)amino)thieno[2,3-c]pyridine-2-carboxamide] | 262 nM | 168 nM | 106 nM |  |  | 
